Experimental data reported in ChEMBL document CHEMBL4312009, “Multigram scale synthesis of polycyclic lactones and evaluation of antitumor and other biological properties” (Eur J Med Chem, 2020).

Test system: HeLa
Assay: Cell cycle arrest in human HeLa cells assessed as effect on 4N stage incubated for 21 hrs by propidium iodide based flow cytometry
Assay type: functional

Compound	EC50 [µM]
CCCCCc1c2c(c(C)c3c1C(=O)OC3)Oc1ccc(OC)cc1O2	> 10

Test system: GTPase KRas (Homo sapiens), P01116 [UNDEFINED MUTATION]
Assay: Inhibition of KRas mutant in human HCT116 cells assessed as cell viability by measuring ATP at 2 uM relative to control
Assay type: cell-based

Chain of GTPase KRas (Homo sapiens), P01116 [UNDEFINED MUTATION] (P01116 whole entry, looked up, change not shown): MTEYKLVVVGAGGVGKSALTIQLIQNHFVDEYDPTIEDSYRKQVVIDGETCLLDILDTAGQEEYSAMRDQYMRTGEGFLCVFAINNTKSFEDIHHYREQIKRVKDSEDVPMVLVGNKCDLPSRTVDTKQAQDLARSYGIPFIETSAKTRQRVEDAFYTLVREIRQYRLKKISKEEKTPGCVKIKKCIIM

Compound	inhibition [%]
CCCCCc1c2c(c(C)c3c1C(=O)OC3)Oc1ccc(OC)cc1O2	7.9

Test system: GTPase KRas (Homo sapiens), P01116 [UNDEFINED MUTATION]
Assay: Inhibition of KRas mutant in human DLD1 cells assessed as cell viability by measuring ATP at 2 uM relative to control
Assay type: cell-based

Compound	inhibition [%]
CCCCCc1c2c(c(C)c3c1C(=O)OC3)Oc1ccc(OC)cc1O2	16

Target: Sodium channel protein type 9 subunit alpha (Homo sapiens) (UniProt Q15858)
Assay: Inhibition of human Nav1.7 at 40 uM relative to control

Chain of Sodium channel protein type 9 subunit alpha (Homo sapiens) (Q15858 whole entry, looked up): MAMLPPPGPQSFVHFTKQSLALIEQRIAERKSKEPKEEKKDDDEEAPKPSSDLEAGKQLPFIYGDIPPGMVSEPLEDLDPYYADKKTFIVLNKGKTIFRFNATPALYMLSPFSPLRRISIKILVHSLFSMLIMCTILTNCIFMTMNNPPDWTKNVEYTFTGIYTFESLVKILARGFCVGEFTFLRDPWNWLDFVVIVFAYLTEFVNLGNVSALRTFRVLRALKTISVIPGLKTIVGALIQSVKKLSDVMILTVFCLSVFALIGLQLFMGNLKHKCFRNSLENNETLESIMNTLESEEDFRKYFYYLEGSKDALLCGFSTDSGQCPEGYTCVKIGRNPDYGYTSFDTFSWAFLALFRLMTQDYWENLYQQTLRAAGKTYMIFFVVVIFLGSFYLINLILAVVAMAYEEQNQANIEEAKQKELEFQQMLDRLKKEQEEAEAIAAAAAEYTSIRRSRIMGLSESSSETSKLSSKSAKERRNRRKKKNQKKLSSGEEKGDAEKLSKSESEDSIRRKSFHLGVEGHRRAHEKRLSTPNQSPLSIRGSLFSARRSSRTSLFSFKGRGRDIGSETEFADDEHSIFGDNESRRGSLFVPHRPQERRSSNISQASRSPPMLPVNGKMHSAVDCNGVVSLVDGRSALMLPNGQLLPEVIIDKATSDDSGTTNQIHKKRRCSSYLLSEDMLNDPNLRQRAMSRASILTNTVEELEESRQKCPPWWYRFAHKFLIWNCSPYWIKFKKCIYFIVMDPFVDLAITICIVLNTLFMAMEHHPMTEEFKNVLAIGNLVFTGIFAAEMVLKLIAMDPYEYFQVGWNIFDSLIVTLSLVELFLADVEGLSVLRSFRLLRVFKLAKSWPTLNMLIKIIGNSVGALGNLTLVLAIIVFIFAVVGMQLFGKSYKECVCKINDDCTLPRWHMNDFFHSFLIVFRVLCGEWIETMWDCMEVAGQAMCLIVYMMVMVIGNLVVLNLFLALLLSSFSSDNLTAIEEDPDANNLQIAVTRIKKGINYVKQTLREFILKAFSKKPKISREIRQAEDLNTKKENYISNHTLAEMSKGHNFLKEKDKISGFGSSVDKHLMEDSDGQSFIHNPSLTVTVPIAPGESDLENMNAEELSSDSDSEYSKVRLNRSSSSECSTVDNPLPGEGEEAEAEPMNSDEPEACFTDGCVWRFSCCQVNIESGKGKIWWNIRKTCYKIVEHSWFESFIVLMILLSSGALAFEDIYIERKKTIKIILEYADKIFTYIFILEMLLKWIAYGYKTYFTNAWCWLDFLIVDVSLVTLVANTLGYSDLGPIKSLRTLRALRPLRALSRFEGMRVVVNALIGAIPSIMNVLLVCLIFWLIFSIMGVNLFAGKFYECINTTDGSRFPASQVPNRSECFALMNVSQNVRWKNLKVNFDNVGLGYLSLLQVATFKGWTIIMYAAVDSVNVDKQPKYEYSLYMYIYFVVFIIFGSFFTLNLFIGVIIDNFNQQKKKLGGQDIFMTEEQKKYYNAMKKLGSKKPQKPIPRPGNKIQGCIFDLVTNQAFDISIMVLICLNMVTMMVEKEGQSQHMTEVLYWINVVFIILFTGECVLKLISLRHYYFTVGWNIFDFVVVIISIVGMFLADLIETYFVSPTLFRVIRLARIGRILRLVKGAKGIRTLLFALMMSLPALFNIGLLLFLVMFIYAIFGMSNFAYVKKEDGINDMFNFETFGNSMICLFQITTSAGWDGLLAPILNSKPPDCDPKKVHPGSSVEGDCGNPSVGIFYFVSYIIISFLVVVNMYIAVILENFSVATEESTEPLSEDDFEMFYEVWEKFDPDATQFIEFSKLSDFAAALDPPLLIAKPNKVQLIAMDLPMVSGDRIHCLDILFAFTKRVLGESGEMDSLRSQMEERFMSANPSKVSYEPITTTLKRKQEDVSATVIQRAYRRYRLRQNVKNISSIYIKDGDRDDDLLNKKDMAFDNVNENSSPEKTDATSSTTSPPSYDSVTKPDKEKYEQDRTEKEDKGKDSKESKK

Compound	inhibition [%]
CCCCCc1c2c(c(C)c3c1C(=O)OC3)Oc1ccc(OC)cc1O2	22

Test system: GTPase KRas (Homo sapiens), P01116 [UNDEFINED MUTATION]
Assay: Inhibition of KRas mutant in human SW480 cells assessed as cell viability by measuring ATP at 20 uM relative to control
Assay type: cell-based

Compound	inhibition [%]
CCCCCc1c2c(c(C)c3c1C(=O)OC3)Oc1ccc(OC)cc1O2	19

Test system: GTPase KRas (Homo sapiens), P01116 [UNDEFINED MUTATION]
Assay: Inhibition of KRas mutant in human SW480 cells assessed as cell viability by measuring ATP at 0.2 uM relative to control
Assay type: cell-based

Compound	inhibition [%]
CCCCCc1c2c(c(C)c3c1C(=O)OC3)Oc1ccc(OC)cc1O2	15

Test system: HeLa
Assay: Cell cycle arrest in human HeLa cells assessed as effect on S phase incubated for 21 hrs by propidium iodide based flow cytometry
Assay type: functional

Compound	IC50 [µM]
CCCCCc1c2c(c(C)c3c1C(=O)OC3)Oc1ccc(OC)cc1O2	> 10

Test system: HeLa
Assay: Cell cycle arrest in human HeLa cells assessed as effect on 2N stage incubated for 21 hrs by propidium iodide based flow cytometry
Assay type: functional

Compound	IC50 [µM]
CCCCCc1c2c(c(C)c3c1C(=O)OC3)Oc1ccc(OC)cc1O2	> 10

Target: Microtubule-associated protein tau (Homo sapiens) (UniProt P10636)
Assay: Inhibition of human Tau at 40 uM relative to control

Chain of Microtubule-associated protein tau (Homo sapiens) (P10636 whole entry): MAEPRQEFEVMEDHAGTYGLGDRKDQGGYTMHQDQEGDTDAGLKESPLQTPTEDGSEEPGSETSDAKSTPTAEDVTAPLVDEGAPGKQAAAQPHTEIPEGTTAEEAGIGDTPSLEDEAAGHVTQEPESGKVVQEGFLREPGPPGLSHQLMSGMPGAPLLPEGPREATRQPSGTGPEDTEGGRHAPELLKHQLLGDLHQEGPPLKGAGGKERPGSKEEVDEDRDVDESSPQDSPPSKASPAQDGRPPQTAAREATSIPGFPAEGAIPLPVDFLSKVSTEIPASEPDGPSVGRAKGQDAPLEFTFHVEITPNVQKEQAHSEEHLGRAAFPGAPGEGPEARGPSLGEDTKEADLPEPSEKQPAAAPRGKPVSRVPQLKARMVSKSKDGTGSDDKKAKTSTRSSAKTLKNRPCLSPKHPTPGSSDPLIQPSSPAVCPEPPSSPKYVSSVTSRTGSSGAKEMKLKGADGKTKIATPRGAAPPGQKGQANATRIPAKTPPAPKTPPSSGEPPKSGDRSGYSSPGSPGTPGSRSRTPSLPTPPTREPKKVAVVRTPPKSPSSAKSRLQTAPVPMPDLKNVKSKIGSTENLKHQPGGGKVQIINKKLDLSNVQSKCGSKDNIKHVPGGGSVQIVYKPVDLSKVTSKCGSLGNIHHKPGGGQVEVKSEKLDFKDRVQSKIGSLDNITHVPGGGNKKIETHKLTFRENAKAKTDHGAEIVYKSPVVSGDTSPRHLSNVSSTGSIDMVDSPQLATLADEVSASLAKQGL

Compound	inhibition [%]
CCCCCc1c2c(c(C)c3c1C(=O)OC3)Oc1ccc(OC)cc1O2	60

Test system: HeLa
Assay: Cell cycle arrest in human HeLa cells assessed as effect on mitotic index incubated for 21 hrs by propidium iodide based flow cytometry
Assay type: functional

Compound	EC50 [µM]
CCCCCc1c2c(c(C)c3c1C(=O)OC3)Oc1ccc(OC)cc1O2	> 10

Target: Apolipoprotein C-III (Homo sapiens) (UniProt P02656)
Assay: Inhibition of human APOC3 at 40 uM relative to control

Chain of Apolipoprotein C-III (Homo sapiens) (P02656 whole entry): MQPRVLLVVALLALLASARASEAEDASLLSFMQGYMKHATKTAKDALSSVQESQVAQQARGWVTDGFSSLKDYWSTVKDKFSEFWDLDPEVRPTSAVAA

Compound	inhibition [%]
CCCCCc1c2c(c(C)c3c1C(=O)OC3)Oc1ccc(OC)cc1O2	38

Target: Proprotein convertase subtilisin/kexin type 9 (Homo sapiens) (UniProt Q8NBP7)
Assay: Inhibition of human PCSK9 at 40 uM relative to control

Chain of Proprotein convertase subtilisin/kexin type 9 (Homo sapiens) (Q8NBP7 31-152 limits assumed): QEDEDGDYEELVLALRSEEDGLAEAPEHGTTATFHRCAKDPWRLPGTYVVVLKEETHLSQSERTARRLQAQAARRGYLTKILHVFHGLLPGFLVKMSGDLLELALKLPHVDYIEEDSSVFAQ
Chain of Proprotein convertase subtilisin/kexin type 9 (Homo sapiens) (Q8NBP7 153-692 limits assumed): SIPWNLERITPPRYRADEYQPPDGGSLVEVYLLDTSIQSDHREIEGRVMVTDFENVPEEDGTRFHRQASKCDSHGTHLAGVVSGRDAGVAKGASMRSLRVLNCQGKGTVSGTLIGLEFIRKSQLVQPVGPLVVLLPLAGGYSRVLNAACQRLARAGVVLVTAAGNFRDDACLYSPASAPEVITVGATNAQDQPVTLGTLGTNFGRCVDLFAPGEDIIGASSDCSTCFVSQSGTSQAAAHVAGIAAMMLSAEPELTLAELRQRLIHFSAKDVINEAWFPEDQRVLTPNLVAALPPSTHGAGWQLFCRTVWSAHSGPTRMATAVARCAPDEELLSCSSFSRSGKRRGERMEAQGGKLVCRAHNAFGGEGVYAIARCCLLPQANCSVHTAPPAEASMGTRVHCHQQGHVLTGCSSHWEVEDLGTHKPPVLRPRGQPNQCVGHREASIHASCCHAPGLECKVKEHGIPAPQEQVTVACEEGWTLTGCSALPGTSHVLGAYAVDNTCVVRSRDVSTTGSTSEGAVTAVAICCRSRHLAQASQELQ

Compound	inhibition [%]
CCCCCc1c2c(c(C)c3c1C(=O)OC3)Oc1ccc(OC)cc1O2	42

Test system: GTPase KRas (Homo sapiens), P01116 [UNDEFINED MUTATION]
Assay: Inhibition of KRas mutant in human DLD1 cells assessed as cell viability by measuring ATP at 20 uM relative to control
Assay type: cell-based

Compound	inhibition [%]
CCCCCc1c2c(c(C)c3c1C(=O)OC3)Oc1ccc(OC)cc1O2	73

Test system: GTPase KRas (Homo sapiens), P01116 [UNDEFINED MUTATION]
Assay: Inhibition of KRas mutant in human HCT116 cells […] assessed as cell viability by measuring ATP at 2 uM relative to control
Assay type: cell-based

Compound	inhibition [%]
CCCCCc1c2c(c(C)c3c1C(=O)OC3)Oc1ccc(OC)cc1O2	8

Test system: GTPase KRas (Homo sapiens), P01116 [UNDEFINED MUTATION]
Assay: Inhibition of KRas mutant in human HCT116 cells […] assessed as cell viability by measuring ATP at 20 uM relative to control
Assay type: cell-based

Compound	inhibition [%]
CCCCCc1c2c(c(C)c3c1C(=O)OC3)Oc1ccc(OC)cc1O2	6

Test system: not listed separately
Assay: Activation of wnt pathway in mouse C2C12 cells assessed as increase in alkaline phosphatase activity
Assay type: cell-based

Compound	EC50 [µM]
CCCCCc1c2c(c(C)c3c1C(=O)OC3)Oc1ccc(OC)cc1O2	> 10

Test system: GTPase KRas (Homo sapiens), P01116 [UNDEFINED MUTATION]
Assay: Inhibition of KRas mutant in human SW480 cells assessed as cell viability by measuring ATP at 2 uM relative to control
Assay type: cell-based

Compound	inhibition [%]
CCCCCc1c2c(c(C)c3c1C(=O)OC3)Oc1ccc(OC)cc1O2	16

Test system: GTPase KRas (Homo sapiens), P01116 [UNDEFINED MUTATION]
Assay: Inhibition of KRas mutant in human HCT116 cells assessed as cell viability by measuring ATP at 20 uM relative to control
Assay type: cell-based

Compound	inhibition [%]
CCCCCc1c2c(c(C)c3c1C(=O)OC3)Oc1ccc(OC)cc1O2	40

Test system: GTPase KRas (Homo sapiens), P01116 [UNDEFINED MUTATION]
Assay: Inhibition of KRas mutant in human HCT116 cells […] assessed as cell viability by measuring ATP at 0.2 uM relative to control
Assay type: cell-based

Compound	inhibition [%]
CCCCCc1c2c(c(C)c3c1C(=O)OC3)Oc1ccc(OC)cc1O2	52

Test system: not listed separately
Assay: Activation of wnt pathway in mouse C2C12 cells assessed as increase in beta-catenin activity
Assay type: cell-based

Compound	EC50 [µM]
CCCCCc1c2c(c(C)c3c1C(=O)OC3)Oc1ccc(OC)cc1O2	> 10

Test system: HeLa
Assay: Cell cycle arrest in human HeLa cells assessed as effect on G1 phase incubated for 21 hrs by propidium iodide based flow cytometry
Assay type: functional

Compound	EC50 [µM]
CCCCCc1c2c(c(C)c3c1C(=O)OC3)Oc1ccc(OC)cc1O2	> 10

Target: T1, Angiopoietin-like protein 8 (Homo sapiens) (UniProt Q6UXH0)
T1 sequence (whole entry): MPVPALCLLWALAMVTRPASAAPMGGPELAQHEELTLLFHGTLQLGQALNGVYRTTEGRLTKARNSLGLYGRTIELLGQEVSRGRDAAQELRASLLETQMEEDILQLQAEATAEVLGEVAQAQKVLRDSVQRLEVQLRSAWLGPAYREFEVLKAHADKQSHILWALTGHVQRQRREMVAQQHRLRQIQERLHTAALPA
Assay: Inhibition of human Angptl8 at 40 uM relative to control

Compound	inhibition [%]
CCCCCc1c2c(c(C)c3c1C(=O)OC3)Oc1ccc(OC)cc1O2	59
